Common to all, as to assay type: in vivo
The subject of data set [1] is Aphis gossypii, cotton aphid. Kind of data set: Cotton aphid (CA) cotyledon dip test. The settings on record: 300 ppm; mortality counts after 5 days. The text has this: (§1) Subsequent dilutions are made with water as needed.
Aphis gossypii, Cotton Aphid (CA)
Cotton plants at the cotyledon stage are selected and cut back to one plant per pot. A heavily infested leaf is taken from the main colony and placed on top of each cotyledon. The aphids are allowed to transfer to the host plant overnight. At the time of test treatment, the leaf used to transfer the aphids is removed and discarded. The cotyledons are dipped in the test solution and allowed to dry. After 5 days, mortality counts are made.

The test system of data set [2] is Spodoptera eridania, eggs-southern armyworm. Kind of data set: Southern armyworm eggs (SAW-Eggs) treated diet test. The settings on record: 3000 ppm; mortality counts after 7 days. The protocol:
as §1
(§2) Spodoptera eridania, Eggs-southern Armyworm and Diabrotica undecimpunctata howardi, Eggs-southern Corn Rootworm (SAW-Eggs) and (SCR-Eggs)
(§3) Wells containing artificial diet are treated with the test solutions and dried. The appropriate insect eggs are then placed in the wells. The wells are covered with vented, adhesive, clear plastic covers. After 7 days, mortality counts are made.

In data set [3] the test system is Spodoptera eridania, 2nd instar larvae, southern armyworm. Kind of data set: Southern armyworm (SAW) 2nd instar larvae leaf dip test. The note with it: 300 ppm; observations at 5 days.
Description: as §1
Spodoptera eridania, 2nd Instar Larvae, Southern Armyworm (SAW)
A Sieva lima bean leaf expanded to 7-8 cm in length is dipped in the test solution with agitation for 3 seconds and allowed to dry in a hood. The leaf is then placed in a 100×10 mm petri dish containing a damp filter paper on the bottom and ten 2nd instar caterpillars. At 5 days, observations are made of mortality, reduced feeding, or any interference with normal molting.

For data set [4], the system named is Root-knot nematode, Meloidogyne incognita. The note with it: potted tomato, scored 4 weeks after inoculation. The text has this:
Soil Nematicide Assay Targeting Root-knot Nematode, Meloidogyne incognita on Potted Tomato
The test compound is solubilized in acetone and diluted with water to the required test concentration. Silty loam soil in a 3 inch pot with a 3-week-old tomato transplant is drenched with the test solution. Four thousand root-knot nematode Meloidogyne incognita J2 larvae are dispensed in a aqueous suspension onto the soil. The pots are kept in the greenhouse and 4 weeks following inoculation of the pots, plant roots are washed free of soil and scored for the degree of root galling using the root-knot galling index identified below.

For data set [5], the system named is C. elegans. Nature of the data set: Evaluation of test compounds against C. elegans. Details: key: 9: complete kill in 4 hours; 8: complete kill in 24 hours; 7: markedly reduced motility in approximately 95% of worms in 24 hours; 0: normal motility, same as controls. The note with it: 300 ppm; observed at 4 and 24 hours post-immersion. As to the method:
Evaluation of Test Compounds Against C. elegans Cultures of C. elegans (Bristol strain from J. Lewis) are maintained on E. coli lawns on NG Agar Plates at […]. New cultures are established weekly. Nematodes for testing are washed from cultures using Na buffer. Compounds are dissolved in 80% acetone. The test material is micropipetted (25 μl) into a single well of a 96-well sterile tissue culture plate and the solvent allowed to evaporate. A freshly prepared volume (50 μl) of C. elegans in Na buffer is micropipetted into each treated well and several control wells per plate. Plates are incubated at 20° C. Observations for efficacy are made under a dissecting microscope at 4 and 24 hours post-immersion. Immediately prior to reading the plate, it is gently tapped to stimulate the movement of the worms. Activity is judged subjectively, but semi-quantitatively, based on the drug effects on motility of the adults and larvae.

The test system of data set [6] is Lucilia serricata first instar blowfly larvae. Nature of the data set: Ectoparasiticide evaluation in Lucilia serricata. The settings on record: rate 100 ppm; for mortality at 100 ppm: Lucilia. As to the method:
Ectoparasiticide Evaluation of Test Compounds in Lucilia serricata
The test compound is dissolved in acetone to a concentration of 100 ppm. 200 μL is added to three 12 mm filter paper disks in 128 well assay trays and allowed to dry. Approximately 20 first instar blowfly larvae and 200 μL bovine serum are added to the disks. Wells are covered with plastic lids and incubated at about 27° C. Mortality is determined at 24 and 48 hours.

Data set [7] has as its system Diabrotica undecimpunctata howardi, eggs-southern corn rootworm. Nature of the data set: Southern corn rootworm eggs (SCR-Eggs) treated diet test. The settings on record: 1000 ppm; mortality counts after 7 days. The protocol: as §1, §2, §3
The subject of data set [8] is Diabrotica virgifera virgifera Leconte, 2nd instar western corn rootworm. Kind of data set: Western corn rootworm (WCR) soil jar test. The settings on record: 50 ppm; mortality counts after 5 days. The protocol:
as §1
Diabrotica virgifera virgifera Leconte, 2nd Instar Western Corn Rootworm (WCR)
One cc of fine talc is placed in a 30 mL wide-mouth screw-top glass jar. One mL of the appropriate acetone test solution is pipetted onto the talc so as to provide 1.25 mg of active ingredient per jar. The jars are set under a gentle air flow until the acetone is evaporated. The dried talc is loosened, 1 cc of millet seed is added to serve as food for the insects and 25 mL of moist soil is added to each jar. The jar is capped and the contents thoroughly mixed mechanically. Following this, ten 2nd instar rootworms are added to each jar and the jars are loosely capped to allow air exchange for the larvae. The treatments are held for 5 days when mortality counts are made. Missing larvae are presumed dead, since they decompose rapidly and cannot be found. The concentrations of active ingredient used in this test correspond approximately to 50 kg/ha.

The test system of data set [9] is Tetranychus urticae (OP-resistant strain), 2-spotted spider mite. Nature of the data set: 2-spotted spider mite (TSM) plant dip test. The settings on record: 300 ppm; mortality counts after 2 days. The protocol:
as §1
Tetranychus urticae (OP-resistant Strain), 2-spotted Spider Mite (TSM)
Sieva lima bean plants with primary leaves expanded to 7-8 cm are selected and cut back to one plant per pot. A small piece is cut from an infested leaf taken from the main colony and placed on each leaf of the test plants. This is done about 2 hours before treatment to allow the mites to move over to the test plant to lay eggs. The size of the cut, infested leaf is varied to obtain about 100 mites per leaf. At the time of test treatment, the piece of leaf used to transfer the mites is removed and discarded. The newly-infested plants are dipped in the test solution for 3 seconds with agitation and set in the hood to dry. After 2 days, one leaf is removed and mortality counts are made.

Where [10] appears, read: 24 hr, read-out: Percent Mortality 24 hr.
Setting [11] is: 48 hr, read-out: Percent Mortality 48 hr.

Where two headings read alike, the source gives them in different places.

These results are taken from patent publication US6448262B1, “Pesticidal and parasiticidal use of 2-(substituted thio) thiazolo-[4,5-b]pyridine compounds” (American Cyanamid Company, priority 1998, dated 2002).

What is called mortality is the share of the test organisms that died.

Molecule `FC(F)=C(F)CCSc1nc2ncccc2s1` [Example 1, 2-[(4,4,3-Trifluoro-3-butenyl)thio]thiazolo[4,5-b]pyridine] gave a CA rating in data set [1] of 0. Further, the “SAW Eggs rating” value in [2] was determined as 8. Also, in [3], the SAW rating worked out at 0. Besides, the results for the “Galling Index” value in data set [4] (rate 10 ppm soil drench), in data set [4] (rate 25 ppm soil drench) and in data set [4] (rate 50 ppm soil drench) were 0 (0), 0^1 (0) and 0^1 (0), respectively. The “C. elegans activity rating (motility of adults and larvae)” value (“C. elegans activity rating” for short) in data set [5] was 7. For the same molecule, the mortality at 100 ppm in data set [6] (setting [10]) and in data set [6] (setting [11]) was 100% throughout. The “SCR Eggs rating” value in data set [7] is listed as 9. Moreover, the WCR rating in [8] is listed as 0. The TSM rating in data set [9] is 0.
`C=CCSc1nc2ncccc2s1` [Example 2] returned a CA rating in data set [1] of 0. The “SAW Eggs rating” value in data set [2] is recorded as 0. For the same molecule, the SAW rating in data set [3] was found to be 0. In addition, the “C. elegans activity rating” value in data set [5] is given as 0. Besides, the “Percent Mortality 24 hr” value in [6] (24 hr) is 0%. Besides, in data set [6] (48 hr), the “Percent Mortality 48 hr” value is 0%. Further, the “SCR Eggs rating” value in data set [7] is given as 0. The molecule further registered a WCR rating in data set [8] of 1. In addition, the TSM rating in data set [9] turned out to be 0.
The molecule `COC(=O)CSc1nc2ncccc2s1` [Example 4] came in with a CA rating in data set [1] of 0. In addition, the “SAW Eggs rating” value in data set [2] was 0. For the same molecule, in data set [3], the SAW rating amounted to 0. Besides, in data set [5], the “C. elegans activity rating” value was 9. Also, the “SCR Eggs rating” value in [7] was 0. For the same molecule, the WCR rating in data set [8] is 0. This molecule also returned a TSM rating in data set [9] of 0.
The molecule `CCOC(=O)CSc1nc2ncccc2s1` [Example 5] came in with a CA rating in data set [1] of 0. The molecule further yielded an SAW rating in [3] of 0. For the same molecule, the “C. elegans activity rating” value in data set [5] turned out to be 9. In addition, the “SCR Eggs rating” value in data set [7] is on record as 0. Moreover, the WCR rating in [8] amounted to 0. The same molecule returned a TSM rating in data set [9] of 0.
In data set [1], `CCOC(=O)C(C)Sc1nc2ncccc2s1` (centres unmarked) [Example 6] gave a CA rating of 0. The “SAW Eggs rating” value in data set [2] is recorded as 9. Further, in [3], the SAW rating was determined as 0. Moreover, the “C. elegans activity rating” value in data set [5] is 9. The “Percent Mortality 24 hr” value in [6] (24 hr) stood at 0%. In addition, the “Percent Mortality 48 hr” value in [6] (48 hr) is reported as 0%. Moreover, the “SCR Eggs rating” value in data set [7] came out at 0. In data set [8], this molecule had a WCR rating of 0. In [9], the TSM rating is 0.
The molecule `FC(F)(Br)Sc1nc2ncccc2s1` [Example 7, 2-[(Bromodifluoromethyl)thio]thiazolo[4,5-b]pyridine] had a CA rating in [1] of 0. Besides, in data set [2], the “SAW Eggs rating” value was 9. In data set [3], the SAW rating is recorded as 0. Moreover, the mortality at 100 ppm came to 80% in [6] (setting [10]) and 100% in [6] (setting [11]). Also, in data set [7], the “SCR Eggs rating” value is given as 9. Moreover, in data set [8], the WCR rating came to 9. The same molecule gave a TSM rating in data set [9] of 5.
Molecule `FC(F)Sc1nc2ncccc2s1` [Example 8, 2-[(Difluoromethyl)thio]thiazolo[4,5-b]pyridine] came in with a CA rating in data set [1] of 3. In addition, the “SAW Eggs rating” value in data set [2] came to 9. This molecule also came in with an SAW rating in data set [3] of 0. Further, the mortality at 100 ppm in [6] (setting [10]) and in [6] (setting [11]) was 0% in each case. Further, in data set [7], the “SCR Eggs rating” value is listed as 9. This molecule returned a WCR rating in [8] of 9. The TSM rating in data set [9] is on record as 8.
